Results: patent publication US6852735B1, “Siastatin B derivatives having a glycosidase inhibitory activity and processes for producing the same” (Zaidan Hojin Biseibutsu Kagaku Kenkyu Kai, priority 1998, dated 2005)

Columns and labels:
Format in all cases: biochemical
[1] = biological target: T1, α-N-acetylgalactosaminidase (from chicken liver) (Gallus gallus, UniProt Q90744); test: α-N-acetylgalactosaminidase inhibition (Test Example 1); settings: for IC50: α-N-acetylgalactosaminidase from chicken liver, substrate p-nitrophenyl-N-acetyl-α-D-galactosaminide, pH 4.0, 37° C., 30 minutes, read-out: 50% inhibiory concentration (IC50) Enzyme A (converted)
T1 construct: originated from chicken liver (a product of Sigma Company); purchased Sigma Company; host or cells: chicken liver
T1 sequence (Q90744 1-405): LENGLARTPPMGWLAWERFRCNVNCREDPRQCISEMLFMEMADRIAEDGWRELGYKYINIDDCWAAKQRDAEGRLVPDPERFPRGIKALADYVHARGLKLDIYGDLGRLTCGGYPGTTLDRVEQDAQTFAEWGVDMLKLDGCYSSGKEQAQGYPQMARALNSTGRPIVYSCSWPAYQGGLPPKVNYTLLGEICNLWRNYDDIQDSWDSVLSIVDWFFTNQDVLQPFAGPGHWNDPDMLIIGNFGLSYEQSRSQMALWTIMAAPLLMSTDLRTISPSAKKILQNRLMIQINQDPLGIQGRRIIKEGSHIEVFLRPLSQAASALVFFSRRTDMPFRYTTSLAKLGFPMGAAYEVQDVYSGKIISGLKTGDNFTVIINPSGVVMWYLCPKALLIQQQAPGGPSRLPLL
Protocol: This Test Example is a test example for determining the N-acetylgalactosaminidase-inhibitory activity of the compound of the formula (I), (V) or (X) according to this invention.
Assay of the N-acetylgalactosaminidase-inhibitory activity was conducted according to a modification of the method described in the “Journal of Biological Chemistry”, 252, pp.5194-5200(1977).
(§1) Thus, 0.5 mL of 0.025M citrate-phosphate buffer (pH 4.0), 0.1 mL of the same buffer containing 10 mM p-nitro-phenyl-N-acetyl-α-D-galactosaminide dissolved therein, and 0.1 mL of either water or an aqueous solution containing as the test compound any one of the compounds of the formulae (I), (V) and (X) according to this invention were mixed with each other and pre-incubated in a 96-wells titer plate at 37° C. for 10 minutes. After the completion of the pre-incubation, to the pre-incubated mixture was added 0.01 mL of 0.025 M citrate-phosphate buffer containing α-N-acetyl-galactosaminidase originated from chicken liver (a product of Sigma Company) which was dissolved in said buffer as a glycosidase to be tested. Thereafter, the enzymatic reaction was conducted at 37° C. for 30 minutes.
(§2) After the enzymatic reaction, to the reaction solution was added 1.0 mL of 0.3M glycine—sodium hydroxide buffer (pH 10.5), in order to terminate the enzymatic reaction. Thereafter, the absorbance [designated as value (a)] of light at 405 nm of the resulting reaction solution was measured. Concurrently, measurement was made of the absorbance [designated as value (b)] at 405 nm of the reaction solution as obtained in the control test where the enzymatic reaction was conducted without addition of the test compound. Further, measurements were made of the absorbance [designated as values (a′)] and the absorbance [[designated as values (b′)] at 405 nm of the solutions as obtained in the blank test and the control test, respectively, where the enzymatic reaction was not conducted in the assay test. The rate of inhibition to […] was calculated by the equation: [1-(a-a′)/(b-b′)]×100.
(§3) The test results obtained are summarized as IC50 value in Table 1 below.

[2] = tested on: β-N-acetylglucosaminidase (from bovine epididymis); test: β-N-acetylglucosaminidase inhibition (Test Example 2); settings: for inhibition of N-acetylglucosaminidase, in words: summary of Table 1; for 50% inhibiory concentration (IC50) Enzyme B: β-N-acetylglucosaminidase from bovine epididymis, substrate p-nitrophenyl-N-acetyl-β-D-glucosaminide
Protocol: as §1, §2, §3
This Test Example is a test example for determining the N-acetylglucosaminidase-inhibitory activity of the compound of the formula (I), (V) or (X) according to this invention.
The evaluation of the N-acetylglucosaminidase-inhibitory activity was conducted according to a modification of the method described in the “Methods in Enzymology”, 28, p.772 (1972).
Namely, the test was conducted in the same manner as the test for the N-acetylgalactosamnidase-inhibitory activity as described above, but with using […] (a product of Sigma Company) originated from bovine epididymis, as the glycosidase enzyme to be tested, and with using p-nitrophenyl-N-acetyl-β-D-glucosaminide as the substrate. Furthermore, absorbances of light at 405 nm were measured in the same manner as described in […]. IC50 value of the test compound capable of giving the 50% inhibition to β-N-acetyl-glucosaminidase was calculated.

[3] = tested on: β-D-glucosidase (from almond); test: β-glucosidase inhibition (Test Example 4); settings: for inhibition of β-D-glucosidase, in words: summary of Table 1; for 50% inhibiory concentration (IC50) Enzyme E: β-D-glucosidase from almond, substrate p-nitrophenyl-β-D-glucoside
Protocol: as §1, §2, §3
This Test Example is a test example for determining the α-glucosidase or β-glucosidase-inhibitory activity of the compound of the formula (I), (V) or (X) according to this invention.
The evaluation of the β-glucosidase-inhibitory activity was conducted according to a modification of the method described in the “Agricultural and Biological Chemistry”, 26, p.203 (1962).
Namely, the test was conducted in the same manner as the test for the enzyme-inhibitory activity described in Test Example 1, but with using α-glucosidase originated from yeast or β-glucosidase originated from almond (both enzymes are products of Sigma Company) as the glycosidase enzyme, and with using p-nitro-phenyl-α-D-glucoside or p-nitrophenyl-β-D-glucoside as the substrate. Furthermore, absorbances of light were measured in the same manner as in Test Example 1, and IC50 values of the test compound capable of giving the 50% inhibition to the enzyme were calculated.

SMILES	inhibition of N-acetyl-galactosaminidase, in words ([1]; summary of Table 1)	IC50 [1]	inhibition of N-acetylglucosaminidase, in words [2]	50% inhibiory concentration (IC50) Enzyme B [2]	inhibition of β-D-glucosidase, in words [3]	50% inhibiory concentration (IC50) Enzyme E [3]
O=C(N[C@H]1NC[C@H](CO)[C@H](O)[C@@H]1O)C(F)(F)F [Formula (I), 6-deacetamido-3-decarboxy-3-hydroxymethyl-6-trifluoroacetamido-siastain B]	inhibit strongly	2.52 µM	inhibit strongly	22 µg/mL	inhibit strongly	0.14 µg/mL
CC(=O)NC1NCC(CO)C(O)C1O (stereo not drawn) [Formula (V), 3-decarboxy-4-epi-3-hydroxymethyl-siastain B]	–	> 490 µM	inhibit strongly	3 µg/mL	inhibit strongly	1.4 µg/mL
O=C(N[C@H]1NC[C@H](CO)[C@@H](O)[C@@H]1O)C(F)(F)F [Formula (X), 6-deacetamido-3-decarboxy-4-epi-3-hydroxymethyl-6-trifluoroacetamido-siastain B]	–	> 387 µM	–	>100 µg/mL	inhibit strongly	0.13 µg/mL
